Literature values as cited in patent US20130243825A1, “COMPOSITIONS AND METHODS FOR THE TREATMENT OF SKIN DISEASES” (priority 2012, published 2013).
Entries after “also recorded” stand apart in the source; their conditions may differ.

System: vasoconstriction
Conditions: seven potency groups, I ultra high to VII least potent; Ference and Last 2009

Row | Compound | potency group by strength in standard vasoconstriction assay
1 | CCC(=O)OCC(=O)[C@@]1(OC(=O)CC)[C@H](C)C[C@H]2[C@H]3[C@H]([C@@H](O)C[C@@]21C)[C@@]1(C)C=CC(=O)C=C1C[C@H]3Cl [Alclometasone dipropionate 0.05%, Alclometasone dipropionate] | Low (VI)
2 | CCCCC(=O)O[C@]1(C(=O)CO)[C@@H](C)C[C@H]2[C@@H]3CCC4=CC(=O)C=C[C@]4(C)[C@@]3(F)[C@@H](O)C[C@@]21C [Betamethasone valerate 0.1%, Betamethasone valerate] | Medium (IV and V)
3 | CCC(=O)O[C@]1(C(=O)CCl)[C@@H](C)C[C@H]2[C@@H]3CCC4=CC(=O)C=C[C@]4(C)[C@@]3(F)[C@@H](O)C[C@@]21C [Clobetasol propionate 0.05%, Clobetasol propionate] | Ultra high (I)
4 | CC1(C)O[C@@H]2C[C@H]3[C@@H]4CCC5=CC(=O)C=C[C@]5(C)[C@H]4[C@@H](O)C[C@]3(C)[C@]2(C(=O)CO)O1 [Desonide 0.05%, Desonide] | Low (VI)
5 | C[C@@H]1C[C@H]2[C@@H]3CCC4=CC(=O)C=C[C@]4(C)[C@@]3(F)[C@@H](O)C[C@]2(C)[C@H]1C(=O)CO [Desoximetasone 0.05%, Desoximetasone] | Medium (IV and V)
6 | C[C@@H]1C[C@H]2[C@@H]3CCC4=CC(=O)C=C[C@]4(C)[C@@]3(F)[C@@H](O)C[C@]2(C)[C@H]1C(=O)CO [Desoximetasone 0.25%, Desoximetasone] | High (II)
7 | CC1(C)O[C@@H]2C[C@H]3[C@@H]4C[C@H](F)C5=CC(=O)C=C[C@]5(C)[C@@]4(F)[C@@H](O)C[C@]3(C)[C@]2(C(=O)CO)O1 [Fluocinolone acetonide 0.025%, Fluocinolone acetonide] | Medium (IV and V)
8 | CC(=O)OCC(=O)[C@@]12OC(C)(C)O[C@@H]1C[C@H]1[C@@H]3C[C@H](F)C4=CC(=O)C=C[C@]4(C)[C@@]3(F)[C@@H](O)C[C@@]12C [Fluocinonide 0.1%, Fluocinonide] | Ultra high (I)
9 | CC(=O)OCC(=O)[C@@]12OC(C)(C)O[C@@H]1C[C@H]1[C@@H]3C[C@H](F)C4=CC(=O)C=C[C@]4(C)[C@@]3(F)[C@@H](O)C[C@@]12C [Fluocinonide 0.05%, Fluocinonide] | High (II)
10 | CCC(=O)O[C@]1(C(=O)SCF)[C@H](C)C[C@H]2[C@@H]3C[C@H](F)C4=CC(=O)C=C[C@]4(C)[C@@]3(F)[C@@H](O)C[C@@]21C [Fluticasone propionate 0.005%, Fluticasone propionate] | Medium to high (III)
11 | CCC(=O)O[C@]1(C(=O)SCF)[C@H](C)C[C@H]2[C@@H]3C[C@H](F)C4=CC(=O)C=C[C@]4(C)[C@@]3(F)[C@@H](O)C[C@@]21C [Fluticasone propionate 0.05%, Fluticasone propionate] | Medium (IV and V)
12 | CC1(C)O[C@@H]2C[C@H]3[C@@H]4CCC5=CC(=O)CC[C@]5(C)[C@@]4(F)[C@@H](O)C[C@]3(C)[C@]2(C(=O)CCl)O1 [Halcinonide 0.1%, Halcinonide] | High (II)
13 | C[C@]12CCC(=O)C=C1CC[C@@H]1[C@@H]2[C@@H](O)C[C@@]2(C)[C@H]1CC[C@]2(O)C(=O)CO [Hydrocortisone 1%, 2.5%, Hydrocortisone] | Least potent (VII)
14 | CCCC(=O)O[C@]1(C(=O)CO)CC[C@H]2[C@@H]3CCC4=CC(=O)CC[C@]4(C)[C@H]3[C@@H](O)C[C@@]21C [Hydrocortisone butyrate 0.1%, Hydrocortisone butyrate] | Medium (IV and V); also recorded: Low (VI)
15 | CCCC(=O)O[C@]1(C(=O)COC(=O)CC)CC[C@H]2[C@@H]3CCC4=CC(=O)CC[C@]4(C)[C@H]3[C@@H](O)C[C@@]21C [Hydrocortisone probutate 0.1%, Hydrocortisone probutate] | Medium (IV and V)
16 | CCCCC(=O)O[C@]1(C(=O)CO)CC[C@H]2[C@@H]3CCC4=CC(=O)CC[C@]4(C)[C@H]3[C@@H](O)C[C@@]21C [Hydrocortisone valerate 0.2%, Hydrocortisone valerate] | Medium (IV and V)
17 | C[C@@H]1C[C@H]2[C@@H]3CCC4=CC(=O)C=C[C@]4(C)[C@@]3(Cl)[C@@H](O)C[C@]2(C)[C@@]1(OC(=O)c1ccco1)C(=O)CCl [Mometasone furoate 0.1%, Mometasone furoate] | Medium (IV and V)
18 | Augmented betamethasone dipropionate | Ultra high (I); also recorded: High (II)

System: standardized wounds created by sequential tape stripping
Conditions: applied to a wound for 15 seconds, 24 subjects; Pagnoni et al. 2004

Row | Compound | stinging/burning sensation
19 | CC(C)O [70% isopropyl alcohol, isopropyl alcohol] | stung
